Results from patent US20260365618A1 (priority 2022, published 2026).
In brackets after ≈: the same amount, converted by molar mass.

Tested on: F. tularensis subsp. holarctica
Assay: microbe, parasite or virus in culture
Type: cell-based, Francisella tularensis subsp. holarctica
Conditions: Francisella tularensis, 48 h

Compound | MIC50 | MIC (read-out: MIC Range)
CC[C@H]1OC(=O)[C@H](C)[C@@H](O[C@H]2C[C@@](C)(OC)[C@@H](O)[C@H](C)O2)[C@H](C)[C@@H](O[C@@H]2O[C@H](C)C[C@H](N(C)C)[C@H]2O)[C@](C)(O)C[C@@H](C)C(=O)[C@H](C)[C@@H](O)[C@]1(C)O [Erythromycin] | 8 mg/L (≈ 10.9 µM) | –
C=C[C@]1(C)C[C@@H](OC(=O)CS[C@@H]2CC[C@@H](N)C[C@H]2O)[C@]2(C)[C@H](C)CC[C@]3(CCC(=O)[C@H]32)[C@@H](C)[C@@H]1O [Lefamulin, 14-O-{[(1R, 2R, 4R)-4-amino-2-hydroxy-cyclohexylsulfanyl]-acetyl}-mutilin] | 4 mg/L (≈ 7.88 µM) | 0.5 to 8 mg/L (≈ 0.985 to 15.8 µM)
